Converted amounts (≈) assume the structure as drawn. The source made the active and inactive calls. The calls are words filed in the database; no cut-off is given here.
Assays:
Enterococcus hirae [1] = experiment: Antimicrobial activity against Enterococcus hirae ATCC 10541 after 18 hrs by twofold dilution technique; format: functional; conditions: ATCC 10541, 18 h
Micrococcus luteus [2] = experiment: Antimicrobial activity against Micrococcus luteus ATCC 9341 after 18 hrs by twofold dilution technique; format: functional; conditions: ATCC 9341, 18 h
Staphylococcus aureus [3] = experiment: microbe, parasite or virus in culture; conditions: ATCC 6538, 18 h, read-out: DIZ
Description: Antimicrobial activity against Staphylococcus aureus ATCC 6538 at 5 ug after 18 hrs by disk diffusion method

Bacillus cereus [4] = experiment: Antimicrobial activity against Bacillus cereus ATCC 11778 after 18 hrs by twofold dilution technique; format: functional; conditions: ATCC 11778, 18 h
Staphylococcus aureus [5] = experiment: Antimicrobial activity against methicillin-resistant Staphylococcus aureus 143/6 by twofold dilution technique; format: functional
Staphylococcus aureus [6] = experiment: Antimicrobial activity against methicillin-resistant Staphylococcus aureus 217/7 by twofold dilution technique; format: functional
Staphylococcus aureus [7] = experiment: Antimicrobial activity against methicillin-resistant Staphylococcus aureus 141/6 by twofold dilution technique; format: functional
Staphylococcus aureus [8] = experiment: Antimicrobial activity against Methicillin susceptible Staphylococcus aureus 206/7 by twofold dilution technique; format: functional
Bacillus cereus [9] = experiment: Antimicrobial activity against Bacillus cereus ATCC 11778 at 5 ug after 18 hrs by disk diffusion method; format: functional; conditions: ATCC 11778, 18 h, read-out: DIZ
Staphylococcus aureus [10] = experiment: Antimicrobial activity against Methicillin susceptible Staphylococcus aureus 238/7 by twofold dilution technique; format: functional
Staphylococcus aureus [11] = experiment: microbe, parasite or virus in culture; conditions: ATCC 29213, 18 h, read-out: DIZ
Description: Antimicrobial activity against Staphylococcus aureus ATCC 29213 at 5 ug after 18 hrs by disk diffusion method

Bacillus subtilis [12] = experiment: microbe, parasite or virus in culture; conditions: ATCC 6633, 18 h, read-out: DIZ
Description: Antimicrobial activity against Bacillus subtilis ATCC 6633 at 5 ug after 18 hrs by disk diffusion method

Staphylococcus aureus [13] = experiment: Antimicrobial activity against methicillin-resistant Staphylococcus aureus 144/6 by twofold dilution technique; format: functional
[14] = tested on: Staphylococcus epidermidis; experiment: microbe, parasite or virus in culture; conditions: ATCC 12228, 18 h, read-out: DIZ
Description: Antimicrobial activity against Staphylococcus epidermidis ATCC 12228 at 5 ug after 18 hrs by disk diffusion method

Staphylococcus aureus [15] = experiment: Antimicrobial activity against Staphylococcus aureus ATCC 25923 after 18 hrs by twofold dilution technique; format: functional; conditions: ATCC 25923, 18 h
Staphylococcus aureus [16] = experiment: Antimicrobial activity against Staphylococcus aureus ATCC 6538 after 18 hrs by twofold dilution technique; format: functional; conditions: ATCC 6538, 18 h
Staphylococcus aureus [17] = experiment: Antimicrobial activity against Staphylococcus aureus NCTC 4163 after 18 hrs by twofold dilution technique; format: functional; conditions: NCTC 4163, 18 h
Staphylococcus aureus [18] = experiment: Antimicrobial activity against Methicillin susceptible Staphylococcus aureus 239/7 by twofold dilution technique; format: functional
Staphylococcus aureus [19] = experiment: Antimicrobial activity against methicillin-resistant Staphylococcus aureus 140/6 by twofold dilution technique; format: functional
Staphylococcus aureus [20] = experiment: Antimicrobial activity against Staphylococcus aureus ATCC 29213 after 18 hrs by twofold dilution technique; format: functional; conditions: ATCC 29213, 18 h
Staphylococcus aureus [21] = experiment: Antimicrobial activity against Methicillin susceptible Staphylococcus aureus 237/7 by twofold dilution technique; format: functional
Staphylococcus aureus [22] = experiment: Antimicrobial activity against methicillin-resistant Staphylococcus aureus 146/6 by twofold dilution technique; format: functional
Staphylococcus aureus [23] = experiment: Antimicrobial activity against Methicillin susceptible Staphylococcus aureus 212/7 by twofold dilution technique; format: functional
Staphylococcus aureus [24] = experiment: Antimicrobial activity against Methicillin susceptible Staphylococcus aureus 243/7 by twofold dilution technique; format: functional
Staphylococcus aureus [25] = experiment: Antimicrobial activity against methicillin-resistant Staphylococcus aureus 236/7 by twofold dilution technique; format: functional
Staphylococcus aureus [26] = experiment: microbe, parasite or virus in culture; conditions: NCTC 4163, 18 h, read-out: DIZ
Description: Antimicrobial activity against Staphylococcus aureus NCTC 4163 at 5 ug after 18 hrs by disk diffusion method

Staphylococcus aureus [27] = experiment: Antimicrobial activity against methicillin-resistant Staphylococcus aureus 218/7 by twofold dilution technique; format: functional
Staphylococcus aureus [28] = experiment: Antimicrobial activity against methicillin-resistant Staphylococcus aureus 200/7 by twofold dilution technique; format: functional
Enterococcus hirae [29] = experiment: Antimicrobial activity against Enterococcus hirae ATCC 10541 at 5 ug after 18 hrs by disk diffusion method; format: functional, organism-based
Staphylococcus aureus [30] = experiment: Antimicrobial activity against Methicillin susceptible Staphylococcus aureus 208/7 by twofold dilution technique; format: functional
Staphylococcus aureus [31] = experiment: Antimicrobial activity against Methicillin susceptible Staphylococcus aureus 213/7 by twofold dilution technique; format: functional
Staphylococcus aureus [32] = experiment: Antimicrobial activity against Methicillin susceptible Staphylococcus aureus 207/7 by twofold dilution technique; format: functional
Staphylococcus aureus [33] = experiment: Antimicrobial activity against Methicillin susceptible Staphylococcus aureus 242/7 by twofold dilution technique; format: functional
Staphylococcus aureus [34] = experiment: microbe, parasite or virus in culture; conditions: ATCC 25923, 18 h, read-out: DIZ
Description: Antimicrobial activity against Staphylococcus aureus ATCC 25923 at 5 ug after 18 hrs by disk diffusion method

Bacillus subtilis [35] = experiment: Antimicrobial activity against Bacillus subtilis ATCC 6633 after 18 hrs by twofold dilution technique; format: functional; conditions: ATCC 6633, 18 h
[36] = tested on: Staphylococcus epidermidis; experiment: Antimicrobial activity against Staphylococcus epidermidis ATCC 12228 by twofold dilution technique; format: functional
Micrococcus luteus [37] = experiment: Antimicrobial activity against Micrococcus luteus ATCC 9341 at 5 ug after 18 hrs by disk diffusion method; format: functional; conditions: ATCC 9341, 18 h, read-out: DIZ
Staphylococcus aureus [38] = experiment: Antimicrobial activity against methicillin-resistant Staphylococcus aureus 136/6 by twofold dilution technique; format: functional
Micrococcus luteus [39] = experiment: Antimicrobial activity against Micrococcus luteus ATCC 10240 by twofold dilution technique; format: functional
Micrococcus luteus [40] = experiment: Antimicrobial activity against Micrococcus luteus ATCC 10240 at 5 ug after 18 hrs by disk diffusion method; format: functional; conditions: ATCC 10240, 18 h, read-out: DIZ

With O=C(O)c1cn(C2CC2)c2cc(N3CCNCC3)c(F)cc2c1=O [CIPROFLOXACIN] the MIC (Enterococcus hirae [1]) was 0.5 µg/mL (≈ 1.51 µM), the MIC (Micrococcus luteus [2]) was 0.5 µg/mL (≈ 1.51 µM) and the zone of inhibition at 5 µg/disc (Staphylococcus aureus [3]) was 28 mm. For the same compound, the MIC (Bacillus cereus [4]) was 1 µg/mL (≈ 3.02 µM), the MIC (Staphylococcus aureus [5]) was greater than 8 µg/mL and the MIC (Staphylococcus aureus [6]) was greater than 8 µg/mL. For the same compound, the MIC (Staphylococcus aureus [7]) was greater than 8 µg/mL, the MIC (Staphylococcus aureus [8]) was 2 µg/mL (≈ 6.04 µM) and the zone of inhibition at 5 µg/disc (Bacillus cereus [9]) was 20 mm. The MIC (Staphylococcus aureus [10]) was 0.5 µg/mL (≈ 1.51 µM), the zone of inhibition at 5 µg/disc (Staphylococcus aureus [11]) was 22 mm and the zone of inhibition at 5 µg/disc (Bacillus subtilis [12]) was 40 mm. It also gave an MIC (Staphylococcus aureus [13]) greater than 8 µg/mL, a zone of inhibition at 5 µg/disc [14] of 30 mm and an MIC (Staphylococcus aureus [15]) of 0.5 µg/mL (≈ 1.51 µM). The MIC (Staphylococcus aureus [16]) was less than 0.125 µg/mL, the MIC (Staphylococcus aureus [17]) was 0.5 µg/mL (≈ 1.51 µM) and the MIC (Staphylococcus aureus [18]) was 0.5 µg/mL (≈ 1.51 µM). It also gave an MIC (Staphylococcus aureus [19]) greater than 8 µg/mL, an MIC (Staphylococcus aureus [20]) of 0.5 µg/mL (≈ 1.51 µM) and an MIC (Staphylococcus aureus [21]) of 4 µg/mL (≈ 12.1 µM). For the same compound, the MIC (Staphylococcus aureus [22]) was greater than 8 µg/mL, the MIC (Staphylococcus aureus [23]) was 0.5 µg/mL (≈ 1.51 µM) and the MIC (Staphylococcus aureus [24]) was 0.5 µg/mL (≈ 1.51 µM). It also gave an MIC (Staphylococcus aureus [25]) of 1 µg/mL (≈ 3.02 µM), a zone of inhibition at 5 µg/disc (Staphylococcus aureus [26]) of 26 mm and an MIC (Staphylococcus aureus [27]) of 4 µg/mL (≈ 12.1 µM). For the same compound, the MIC (Staphylococcus aureus [28]) was greater than 8 µg/mL, the “diameter of the inhibition zone (DIZ)” value (Enterococcus hirae [29]) was “inactive” and the MIC (Staphylococcus aureus [30]) was 0.5 µg/mL (≈ 1.51 µM). It also gave an MIC (Staphylococcus aureus [31]) of 0.5 µg/mL (≈ 1.51 µM), an MIC (Staphylococcus aureus [32]) of 0.5 µg/mL (≈ 1.51 µM) and an MIC (Staphylococcus aureus [33]) of 0.5 µg/mL (≈ 1.51 µM). The zone of inhibition at 5 µg/disc (Staphylococcus aureus [34]) was 26 mm, the MIC (Bacillus subtilis [35]) was 2 µg/mL (≈ 6.04 µM) and the MIC [36] was 4 µg/mL (≈ 12.1 µM). It also gave a zone of inhibition at 5 µg/disc (Micrococcus luteus [37]) of 22 mm, an MIC (Staphylococcus aureus [38]) greater than 8 µg/mL and an MIC (Micrococcus luteus [39]) of 0.5 µg/mL (≈ 1.51 µM). The zone of inhibition at 5 µg/disc (Micrococcus luteus [40]) was 24 mm.

Reference: ChEMBL document CHEMBL1155271, “Synthesis, crystal structures and antibacterial activity studies of aza-derivatives of phytoalexin from cotton plant--gossypol” (2009)
